# Test results taken from US5292733A, “Cephalosporin compounds” (Lucky Limited, priority 1991, dated 1994).
# Key:
# Assay in all cases: Antibacterial activity MIC, two-fold agar dilution
# Assay type in all cases: cell-based
# [1] = tested on: Staphylococcus aureus ATCC 6538p; conditions: ATCC6538P; Staphylococcus aureus ATCC 6538p; Muller-Hinton agar, 37° C., 20 hours; read-out: Antibacterial Activity MIC
# Procedure, shortened: (§1)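 MIC by two-fold agar dilution: Muller-Hinton agar; inoculum 2 μl of 10^7 CFU/ml culture; 37° C., 20 h.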
# [2] = tested on: Bacillus cereus ATCC 11778; conditions: ATCC11778; Bacillus cereus ATCC 11778; Muller-Hinton agar, 37° C., 20 hours; read-out: Antibacterial Activity MIC
# Procedure, shortened: as §1
# [3] = tested on: Bacillus megaterium ATCC 9885; conditions: Priestia megaterium, ATCC9885; Bacillus megaterium ATCC 9885; Muller-Hinton agar, 37° C., 20 hours; read-out: Antibacterial Activity MIC
# Procedure, shortened: as §1
# [4] = tested on: Enterobacter cloacae ATCC 27508; conditions: ATCC27508; Enterobacter cloacae ATCC 27508; Muller-Hinton agar, 37° C., 20 hours; read-out: Antibacterial Activity MIC
# Procedure, shortened: as §1
# [5] = tested on: Staphylococcus aureus ATCC 10537; conditions: ATCC10537; Staphylococcus aureus ATCC 10537; Muller-Hinton agar, 37° C., 20 hours; read-out: Antibacterial Activity MIC
# Procedure, shortened: as §1
# [6] = tested on: Streptococcus faecalis ATCC 29212; conditions: Enterococcus faecalis, ATCC29212; Streptococcus faecalis ATCC 29212; Muller-Hinton agar, 37° C., 20 hours; read-out: Antibacterial Activity MIC
# Procedure, shortened: as §1
# [7] = tested on: Morganella morganii ATCC 8076h; conditions: ATCC8076H, Muller-Hinton agar, 37° C., 20 hours
# Procedure, shortened: as §1
# [8] = tested on: Klebsiella pneumoniae ATCC 10031; conditions: ATCC10031; Klebsiella pneumoniae ATCC 10031; Muller-Hinton agar, 37° C., 20 hours; read-out: Antibacterial Activity MIC
# Procedure, shortened: as §1
# [9] = tested on: Serratia marcescens ATCC 27117; conditions: ATCC27117; Serratia marcescens ATCC 27117; Muller-Hinton agar, 37° C., 20 hours; read-out: Antibacterial Activity MIC
# Procedure, shortened: as §1
# [10] = tested on: Escherichia coli ATCC 10536; conditions: ATCC10536, Muller-Hinton agar, 37° C., 20 hours
# Procedure, shortened: as §1
# [11] = tested on: Citrobacter freundii ATCC 8090; conditions: ATCC8090; Citrobacter freundii ATCC 8090; Muller-Hinton agar, 37° C., 20 hours; read-out: Antibacterial Activity MIC
# Procedure, shortened: as §1
# [12] = tested on: Acinetobacter calcoaceticus ATCC 15473; conditions: ATCC15473; Acinetobacter calcoaceticus ATCC 15473; Muller-Hinton agar, 37° C., 20 hours; read-out: Antibacterial Activity MIC
# Procedure, shortened: as §1
# [13] = tested on: Pseudomonas aeruginosa ATCC 27853; conditions: ATCC27853; Pseudomonas aeruginosa ATCC 27853; Muller-Hinton agar, 37° C., 20 hours; read-out: Antibacterial Activity MIC
# Procedure, shortened: as §1
# [14] = tested on: Salmonella typhimurium ATCC 14028; conditions: Salmonella enterica; Salmonella typhimurium ATCC 14028; Muller-Hinton agar, 37° C., 20 hours; read-out: Antibacterial Activity MIC
# Procedure, shortened: as §1
# [15] = tested on: Shigella sonnei ATCC 11060; conditions: ATCC11060, Muller-Hinton agar, 37° C., 20 hours
# Procedure, shortened: as §1
# [16] = tested on: Enterobacter aerogenes ATCC 29751; conditions: Klebsiella aerogenes, ATCC29751; Enterobacter aerogenes ATCC 29751; Muller-Hinton agar, 37° C., 20 hours; read-out: Antibacterial Activity MIC
# Procedure, shortened: as §1
# [17] = tested on: Staphylococcus epidermidis ATCC 12228; conditions: ATCC12228; Staphylococcus epidermidis ATCC 12228; Muller-Hinton agar, 37° C., 20 hours; read-out: Antibacterial Activity MIC
# Procedure, shortened: as §1
# [18] = tested on: Pseudomonas aeruginosa ATCC 25619; conditions: ATCC25619; Pseudomonas aeruginosa ATCC 25619; Muller-Hinton agar, 37° C., 20 hours; read-out: Antibacterial Activity MIC
# Procedure, shortened: as §1
# [19] = tested on: Pseudomonas aeruginosa ATCC 10145; conditions: ATCC10145; Pseudomonas aeruginosa ATCC 10145; Muller-Hinton agar, 37° C., 20 hours; read-out: Antibacterial Activity MIC
# Procedure, shortened: as §1
# [20] = tested on: Proteus vulgaris ATCC 6059; conditions: ATCC6059; Proteus vulgaris ATCC 6059; Muller-Hinton agar, 37° C., 20 hours; read-out: Antibacterial Activity MIC
# Procedure, shortened: as §1
# [21] = tested on: Proteus mirabilis ATCC 25933; conditions: ATCC25933; Proteus mirabilis ATCC 25933; Muller-Hinton agar, 37° C., 20 hours; read-out: Antibacterial Activity MIC
# Procedure, shortened: as §1
# [22] = tested on: Escherichia coli ATCC 25922; conditions: ATCC25922, Muller-Hinton agar, 37° C., 20 hours
# Procedure, shortened: as §1
# [23] = tested on: Providencia rettgeri ATCC 9250; conditions: ATCC9250, Muller-Hinton agar, 37° C., 20 hours
# Procedure, shortened: as §1
# [24] = tested on: Micrococcus luteus ATCC 9341; conditions: ATCC9341; Micrococcus luteus ATCC 9341; Muller-Hinton agar, 37° C., 20 hours; read-out: Antibacterial Activity MIC
# Procedure, shortened: as §1
# [25] = tested on: Shigella flexneri ATCC 11836; conditions: ATCC11836, Muller-Hinton agar, 37° C., 20 hours
# Procedure, shortened: as §1
smiles,measurement,setting,value
"C[n+]1c(N)cc(SCC2=C(C(=O)[O-])N3C(=O)[C@@H](NC(=O)/C(=N\OCC(=O)O)c4csc(N)n4)[C@H]3SC2)nc1N [Compound I-17, (6R,7R)-7-[(Z)-2-(2-aminothiazol-4-yl)-2-(carboxymethoxyimino)acetamido]-3-(2,6-diamino-1-methylpyrimidinium-4-yl)thiomethyl-3-cephem-4-carboxylate]",MIC,[1],8 µg/mL
same,MIC,[2],> 128 µg/mL
same,MIC,[3],0.5 µg/mL
same,MIC,[4],0.016 µg/mL
same,MIC,[5],4 µg/mL
same,MIC,[6],> 128 µg/mL
same,MIC,[7],≤ 0.008 µg/mL
same,MIC,[8],0.031 µg/mL
same,MIC,[9],0.063 µg/mL
same,MIC,[10],0.031 µg/mL
same,MIC,[11],0.031 µg/mL
same,MIC,[12],16 µg/mL
same,MIC,[13],2 µg/mL
same,MIC,[14],0.063 µg/mL
same,MIC,[15],0.031 µg/mL
same,MIC,[16],1 µg/mL
same,MIC,[17],2 µg/mL
same,MIC,[18],1 µg/mL
same,MIC,[19],4 µg/mL
same,MIC,[20],0.063 µg/mL
same,MIC,[21],0.031 µg/mL
same,MIC,[22],0.016 µg/mL
same,MIC,[23],≤ 0.008 µg/mL
same,MIC,[24],1 µg/mL
same,MIC,[25],0.016 µg/mL
"CC[n+]1c(N)cc(SCC2=C(C(=O)[O-])N3C(=O)[C@@H](NC(=O)/C(=N\OCC(=O)O)c4csc(N)n4)[C@H]3SC2)nc1N [Compound I-18, (6R,7R)-7-[(Z)-2-(2-aminothiazol-4-yl)-2-(carboxymethoxyimino)acetamido]-3-(2,6-diamino-1-ethyl-pryrimidinium-4-yl)thiomethyl-3-cephem-4-carboxylate]",MIC,[1],4 µg/mL
same,MIC,[2],> 128 µg/mL
same,MIC,[3],0.5 µg/mL
same,MIC,[4],0.016 µg/mL
same,MIC,[5],4 µg/mL
same,MIC,[6],> 128 µg/mL
same,MIC,[7],≤ 0.008 µg/mL
same,MIC,[8],0.031 µg/mL
same,MIC,[9],0.063 µg/mL
same,MIC,[10],0.063 µg/mL
same,MIC,[11],0.063 µg/mL
same,MIC,[12],16 µg/mL
same,MIC,[13],2 µg/mL
same,MIC,[14],0.25 µg/mL
same,MIC,[15],0.063 µg/mL
same,MIC,[16],2 µg/mL
same,MIC,[17],2 µg/mL
same,MIC,[18],1 µg/mL
same,MIC,[19],4 µg/mL
same,MIC,[20],0.063 µg/mL
same,MIC,[21],0.063 µg/mL
same,MIC,[22],0.063 µg/mL
same,MIC,[23],≤ 0.008 µg/mL
same,MIC,[24],0.5 µg/mL
same,MIC,[25],0.016 µg/mL
"C#CCO/N=C(\C(=O)N[C@@H]1C(=O)N2C(C(=O)[O-])=C(CSc3cc(N)[n+](CC)c(N)n3)CS[C@H]12)c1csc(N)n1 [Compound I-15, (6R,7R)-7-[(Z)-2-(2-aminothiazol-4-yl)-2-(2-propyn-1-oxyimino)acetamido]-3-(2,6-diamino-1-ethylpyrimidinium-4-yl)thiomethyl-3-cephem-4-carboxylate]",MIC,[1],0.5 µg/mL
same,MIC,[2],32 µg/mL
same,MIC,[3],0.25 µg/mL
same,MIC,[4],0.031 µg/mL
same,MIC,[5],0.5 µg/mL
same,MIC,[6],16 µg/mL
same,MIC,[7],0.016 µg/mL
same,MIC,[8],0.016 µg/mL
same,MIC,[9],0.5 µg/mL
same,MIC,[10],0.25 µg/mL
same,MIC,[11],0.25 µg/mL
same,MIC,[12],8 µg/mL
same,MIC,[13],4 µg/mL
same,MIC,[14],0.5 µg/mL
same,MIC,[15],0.5 µg/mL
same,MIC,[16],1 µg/mL
same,MIC,[17],0.25 µg/mL
same,MIC,[18],1 µg/mL
same,MIC,[19],8 µg/mL
same,MIC,[20],1 µg/mL
same,MIC,[21],0.5 µg/mL
same,MIC,[22],0.5 µg/mL
same,MIC,[23],≤ 0.008 µg/mL
same,MIC,[24],0.031 µg/mL
same,MIC,[25],0.13 µg/mL
"CC(C)(O/N=C(\C(=O)NC1C(=O)N2C(C(=O)[O-])=C(CSc3nc(N)nc(N)[n+]3-c3ccccc3)CS[C@H]12)c1csc(N)n1)C(=O)O (stereo partly drawn) [Compound I-25, 7-[(Z)-2-(2-aminothiazol-4-yl) -2-(2-carboxyprop-2-oxyimino)acetamido]-3-(4,6-diamino-1-phenyl-1,3,5-triazinium-2-yl)thiomethyl-3-cephem-4-carboxylate]",MIC,[1],4 µg/mL
same,MIC,[2],128 µg/mL
same,MIC,[3],0.5 µg/mL
same,MIC,[4],0.13 µg/mL
same,MIC,[5],4 µg/mL
same,MIC,[6],> 128 µg/mL
same,MIC,[7],≤ 0.008 µg/mL
same,MIC,[8],0.25 µg/mL
same,MIC,[9],0.13 µg/mL
same,MIC,[10],0.13 µg/mL
same,MIC,[11],0.5 µg/mL
same,MIC,[12],16 µg/mL
same,MIC,[13],2 µg/mL
same,MIC,[14],0.25 µg/mL
same,MIC,[15],0.25 µg/mL
same,MIC,[16],2 µg/mL
same,MIC,[17],4 µg/mL
same,MIC,[18],1 µg/mL
same,MIC,[19],4 µg/mL
same,MIC,[20],0.13 µg/mL
same,MIC,[21],0.13 µg/mL
same,MIC,[22],0.25 µg/mL
same,MIC,[23],≤ 0.008 µg/mL
same,MIC,[24],0.5 µg/mL
same,MIC,[25],0.13 µg/mL
"CC[n+]1c(N)cc(SCC2=C(C(=O)[O-])N3C(=O)[C@@H](NC(=O)/C(=N\OC(C)C(=O)O)c4csc(N)n4)[C@H]3SC2)nc1N (stereo partly drawn) [Compound I-20, (6R,7R)-7-[(Z)-2-(2-aminothiazol-4-yl)-2-(R,S-carboxyeth-1-oxyimino)acetamido]-3-(2,6-diamino-1-ethylprimidinium-4-yl)thiomethyl-3cephem-4-carboxylate]",MIC,[1],2 µg/mL
same,MIC,[2],128 µg/mL
same,MIC,[3],0.25 µg/mL
same,MIC,[4],0.016 µg/mL
same,MIC,[5],4 µg/mL
same,MIC,[6],128 µg/mL
same,MIC,[7],≤ 0.008 µg/mL
same,MIC,[8],0.063 µg/mL
same,MIC,[9],0.25 µg/mL
same,MIC,[10],0.13 µg/mL
same,MIC,[11],0.13 µg/mL
same,MIC,[12],8 µg/mL
same,MIC,[13],2 µg/mL
same,MIC,[14],0.5 µg/mL
same,MIC,[15],0.5 µg/mL
same,MIC,[16],1 µg/mL
same,MIC,[17],4 µg/mL
same,MIC,[18],1 µg/mL
same,MIC,[19],4 µg/mL
same,MIC,[20],0.25 µg/mL
same,MIC,[21],0.063 µg/mL
same,MIC,[22],0.13 µg/mL
same,MIC,[23],≤ 0.008 µg/mL
same,MIC,[24],0.25 µg/mL
same,MIC,[25],0.016 µg/mL
"CCO/N=C(\C(=O)N[C@@H]1C(=O)N2C(C(=O)[O-])=C(CSc3cc(N)nc(N)[n+]3CC)CS[C@H]12)c1nsc(N)n1 [Compound I-6, (6R,7R)-7-[(Z)-2-(5-amino-1,2,4-thiadiazol-3-yl)-2-(ethoxyimino)acetamido]-3-(2,6-diamino-3-ethylpyrimidinium-4-yl)thiomethyl-3-cephem-4-carboxylate]",MIC,[1],1 µg/mL
same,MIC,[2],64 µg/mL
same,MIC,[3],0.13 µg/mL
same,MIC,[4],0.063 µg/mL
same,MIC,[5],1 µg/mL
same,MIC,[6],> 128 µg/mL
same,MIC,[7],≤ 0.008 µg/mL
same,MIC,[8],0.031 µg/mL
same,MIC,[9],0.25 µg/mL
same,MIC,[10],0.13 µg/mL
same,MIC,[11],0.13 µg/mL
same,MIC,[12],8 µg/mL
same,MIC,[13],16 µg/mL
same,MIC,[14],0.5 µg/mL
same,MIC,[15],0.25 µg/mL
same,MIC,[16],0.5 µg/mL
same,MIC,[17],0.5 µg/mL
same,MIC,[18],2 µg/mL
same,MIC,[19],16 µg/mL
same,MIC,[20],0.031 µg/mL
same,MIC,[21],0.016 µg/mL
same,MIC,[22],0.13 µg/mL
same,MIC,[23],≤ 0.008 µg/mL
same,MIC,[24],0.063 µg/mL
same,MIC,[25],0.063 µg/mL
